Laboratory results taken from patent publication US12679839B2, “Cyclin-dependent kinase 7 (CDK7) non-covalent inhibitors” (JANSSEN PHARMACEUTICA NV, priority 2020, dated 2026).

Key:
[1] = target: T1, CDK7/Cyclin H/MAT-1 complex (Homo sapiens, UniProt P50613); experiment: Flint assay, end-point fluorescence (5 nM CDK7/Cyclin H/MAT-1 complex); type: biochemical; settings: read-out: CDK7 (5 nM) pIC50 (converted)
T1 construct: Human CDK7 (amino acids 1-346); His6 (N); TEV protease cleavage site (N); made in house; host or cells: baculovirus-SF9 insect cells
T1 sequence (P50613 whole entry, the tested form may be a part): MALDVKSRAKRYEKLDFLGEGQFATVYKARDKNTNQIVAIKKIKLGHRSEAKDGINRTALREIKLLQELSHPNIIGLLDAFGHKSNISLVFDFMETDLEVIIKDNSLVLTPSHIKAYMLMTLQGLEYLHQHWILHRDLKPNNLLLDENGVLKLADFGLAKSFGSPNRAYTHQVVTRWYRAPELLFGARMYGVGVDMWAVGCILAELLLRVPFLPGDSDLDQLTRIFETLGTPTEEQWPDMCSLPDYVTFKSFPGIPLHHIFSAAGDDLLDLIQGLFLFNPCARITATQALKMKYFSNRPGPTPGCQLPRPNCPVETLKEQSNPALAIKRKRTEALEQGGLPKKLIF
T1 sequence (P51946 whole entry partner, the tested form may be a part): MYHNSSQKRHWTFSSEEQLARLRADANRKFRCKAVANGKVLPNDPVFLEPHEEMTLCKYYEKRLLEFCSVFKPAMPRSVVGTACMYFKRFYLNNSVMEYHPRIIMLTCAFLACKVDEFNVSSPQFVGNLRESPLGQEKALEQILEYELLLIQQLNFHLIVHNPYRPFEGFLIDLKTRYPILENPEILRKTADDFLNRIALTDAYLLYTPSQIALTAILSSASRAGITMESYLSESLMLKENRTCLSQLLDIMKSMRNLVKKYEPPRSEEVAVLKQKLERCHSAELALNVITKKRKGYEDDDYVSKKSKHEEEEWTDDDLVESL
T1 sequence (P51948 whole entry partner, the tested form may be a part): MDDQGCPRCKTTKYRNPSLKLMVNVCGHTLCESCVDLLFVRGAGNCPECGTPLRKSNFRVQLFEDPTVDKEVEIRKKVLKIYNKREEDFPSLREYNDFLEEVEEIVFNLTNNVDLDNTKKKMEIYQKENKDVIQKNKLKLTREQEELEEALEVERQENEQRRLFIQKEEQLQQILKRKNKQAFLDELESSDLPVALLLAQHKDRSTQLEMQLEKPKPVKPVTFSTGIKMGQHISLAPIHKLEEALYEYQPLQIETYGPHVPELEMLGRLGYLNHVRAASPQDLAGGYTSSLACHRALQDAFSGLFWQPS
How it was run: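 Trimeric complex of His6-TEV-tagged human CDK7 (1-346), MAT1 (1-309) and cyclin H (1-323), co-expressed in Sf9 cells, at 5 nM final, with substrates and coupling reagents as in the absorbance assay; 24 h reaction. End-point NADH fluorescence decrease (ex 340/em 440 nm); % inhibition versus no-inhibitor and full-inhibition controls, IC50 from four-parameter Hill fit.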

[2] = test system: RNA polymerase II Serine 5 phosphorylation (Rpb1 CTD), downstream substrate of CDK7; experiment: Imaging-based cellular RNA PolII Ser5 phosphorylation assay in A549 cells; type: cell-based, human; settings: Homo sapiens, A549, 3 h, challenged with compound for 3 hours, read-out: pRNA polII Ser5 (A549) pIC50 (converted)
How it was run: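 A549 cells seeded 20 h in DMEM with 1% FBS, then exposed to compound for 3 h at 37 °C; fixed, methanol-permeabilized and immunostained for phospho-Rpb1 CTD Ser5, read by automated imaging. Signal normalized to DMSO (high) and 10 μM LDC4297 (low) controls; IC50 from four-parameter fit of % control vs concentration.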

Q: Which results are given for `CC1CN(C(=O)[C@H]2CCN(C)C[C@@H]2c2ccccc2)Cc2nc(Nc3cnn(C)c3)ncc21` (mixture of isomers) [Compound 194]?
A: IC50 [1]: 6.17 nM; IC50 [2]: 110 nM

Q: For `C[C@@H]1Cc2cnc(N[C@@H]3CCC(=O)N(C)C3)nc2CN1C(=O)[C@H]1CCN(C)C[C@@H]1c1ccccc1` (relative stereo) [Compound 6], which IC50 [1] is on record?
A: Its IC50 is 3.8 nM.

Q: What about the IC50 [2] of the same molecule?
A: Its IC50 is 832 nM.

Q: Which results are given for `C[C@@H]1Cc2cnc(N[C@H]3CCOC(C)(C)C3)nc2CN1C(=O)[C@H]1CCN(C)C[C@@H]1c1ccccc1` (relative stereo) [Compound 39]?
A: IC50 [1]: 5.01 nM; IC50 [2]: 398 nM

Q: How did the IC50 [1] turn out when `Cc1cc([C@@H]2CN(C)CC[C@H]2C(=O)N2Cc3nc(NC4CCOCC4)ncc3C[C@H]2C)ccn1` (relative stereo) [Compound 102] was run?
A: The IC50 was 19.5 nM.

Q: And the IC50 [2]?
A: Its IC50 is 1700 nM.

Q: With `CO[C@H]1CC[C@H](Nc2ncc3c(n2)CN(C(=O)[C@@H]2CCN(C)C[C@H]2c2ccnc(C)c2)[C@H](C)C3)CC1` (relative stereo) [Compound 105] as the molecule, how does the IC50 [1] read?
A: Its IC50 is 10 nM.

Q: What about the IC50 [2] of the same molecule?
A: The IC50 was 407 nM.

Q: `C[C@@H]1Cc2cnc(NCc3ccn(C)n3)nc2CN1C(=O)[C@H]1CCN(C)C[C@@H]1c1cccc(C(F)(F)F)c1` (relative stereo) [Compound 129] was tested. Which IC50 [1] did it give?
A: The IC50 was 4.9 nM.

Q: What about the IC50 [2] of the same molecule?
A: The IC50 was roughly 41.7 nM.

Q: For `C[C@@H]1Cc2cnc(NC3CCOCC3)nc2CN1C(=O)[C@H]1CCN(C)C[C@@H]1c1ccc(Cl)cc1` (relative stereo) [Compound 132], which IC50 [1] is on record?
A: The IC50 was 3.63 nM.

Q: What about the IC50 [2] of the same molecule?
A: The IC50 was roughly 81.3 nM.

Q: Which IC50 [1] does the source give for `C[C@@H]1Cc2cnc(NC3CCOCC3)nc2CN1C(=O)[C@H]1CCN(C)C[C@@H]1c1cccc(F)c1` (relative stereo) [Compound 133] here?
A: Its IC50 is 8.13 nM.

Q: What about the IC50 [2] of the same molecule?
A: Its IC50 is 97.7 nM.

Q: `Cc1cccc([C@H]2CN(C)CC[C@@H]2C(=O)N2Cc3nc(NC4CCOCC4)ncc3C[C@H]2C)c1` (relative stereo) [Compound 134] was tested. Which IC50 [1] did it give?
A: Its IC50 is 3.16 nM.

Q: What about the IC50 [2] of the same molecule?
A: The IC50 was roughly 67.6 nM.

Q: For `Cc1cccc([C@@H]2CN(C)CC[C@H]2C(=O)N2Cc3nc(NCc4ccn(C)n4)ncc3C[C@H]2C)c1` (relative stereo) [Compound 136], which IC50 [1] is on record?
A: The IC50 was 15.8 nM.

Q: And the IC50 [2]?
A: The IC50 was roughly 27.5 nM.

Q: Which IC50 [1] does the source give for `C[C@@H]1Cc2cnc(NCc3ccn(C)n3)nc2CN1C(=O)[C@H]1CCN(C)C[C@@H]1c1ccccc1C(F)F` (relative stereo) [Compound 139] here?
A: Its IC50 is 49 nM.

Q: What about the IC50 [2] of the same molecule?
A: Its IC50 is 1260 nM.

Q: What does the source list for `C[C@@H]1Cc2cnc(NCc3ccccc3)nc2CN1C(=O)[C@@H]1CCN(C)C[C@H]1C(F)(F)F` (relative stereo) [Compound 141]?
A: IC50 [1]: 8.51 nM; IC50 [2]: > 10000 nM

Q: With `C[C@@H]1Cc2cnc(NCc3ccn(C)n3)nc2CN1C(=O)[C@H]1CCN(C)C[C@@H]1C(F)(F)F` (relative stereo) [Compound 143] as the molecule, how does the IC50 [1] read?
A: Its IC50 is 8.91 nM.

Q: And the IC50 [2]?
A: The IC50 was 2570 nM.

Q: What does the source list for `C[C@@H]1Cc2cnc(N[C@H]3CCCNC3)nc2CN1C(=O)[C@H]1CCN(C)C[C@@H]1C(F)(F)F` (relative stereo) [Compound 144]?
A: IC50 [1]: 10 nM; IC50 [2]: 759 nM

Q: Which results are given for `C[C@@H]1CN(C)CC[C@H]1C(=O)N1Cc2nc(NC3CCOCC3)ncc2C[C@H]1C` (relative stereo) [Compound 145]?
A: IC50 [1]: 100 nM; IC50 [2]: 2950 nM

Q: Which IC50 [1] does the source give for `C[C@@H]1Cc2cnc(NC3CCOCC3)nc2CN1C(=O)[C@H]1CCN(C)C[C@@H]1C` (relative stereo) [Compound 146] here?
A: The IC50 was 17.4 nM.

Q: What about the IC50 [2] of the same molecule?
A: The IC50 was 692 nM.

Q: `C[C@H]1CN(C(=O)[C@H]2CCN(C)C[C@@H]2c2ccccc2)[C@@H](C)c2nc(NC3CCOCC3)ncc21` (relative stereo) [Compound 181] was tested. Which IC50 [1] did it give?
A: Its IC50 is 105 nM.

Q: What about the IC50 [2] of the same molecule?
A: Its IC50 is 2510 nM.

Q: What does the source list for `C[C@@H]1CN(C(=O)[C@H]2CCN(C)C[C@@H]2c2ccccc2)Cc2nc(NC3CCOCC3)ncc21` (relative stereo) [Compound 188]?
A: IC50 [1]: 2.82 nM; IC50 [2]: 105 nM

Q: For `CN1CC[C@H](C(=O)N2Cc3nc(NC4CCOCC4)ncc3CC2(C)C)[C@@H](c2ccccc2)C1` (relative stereo) [Compound 189], which IC50 [1] is on record?
A: Its IC50 is 22.4 nM.

Q: What about the IC50 [2] of the same molecule?
A: The IC50 was 1020 nM.

Q: Which IC50 [1] does the source give for `[2H]C([2H])([2H])N1CC[C@@H](C(=O)N2Cc3nc(NCc4ccn(C)n4)ncc3C[C@H]2C)[C@H](c2cccc(C)c2)C1` (single isomer, unassigned) [Compound 148] here?
A: The IC50 was less than 2.51 nM.

Q: What about the IC50 [2] of the same molecule?
A: Its IC50 is roughly 26.9 nM.

Q: Which IC50 [1] does the source give for `[2H]C([2H])([2H])N1CC[C@H](C(=O)N2Cc3nc(NCc4ccccc4)ncc3C[C@H]2C)[C@@H](c2ccccc2)C1` (single isomer, unassigned) [Compound 154] here?
A: The IC50 was 2.51 nM.

Q: And the IC50 [2]?
A: Its IC50 is 129 nM.

Q: With `C[C@@H]1Cc2cnc(NC3CCOCC3)nc2[C@H](C)N1C(=O)[C@H]1CCN(C)C[C@@H]1c1ccccc1` (single isomer, unassigned) [Compound 195b] as the molecule, how does the IC50 [1] read?
A: The IC50 was 4.9 nM.

Q: What about the IC50 [2] of the same molecule?
A: Its IC50 is 72.4 nM.
